From patent publication US11168073B2, “3,3-difluoroallylamines or salts thereof and pharmaceutical compositions comprising the same” (YUHAN CORPORATION, priority 2018, dated 2021)
Counter-ions that a name gives are not always drawn.

Key:
Assay type in all cases: biochemical
[1] = molecular target: T1, recombinant human VAP-1 (Homo sapiens, UniProt Q16853); test: Activity evaluation on recombinant human VAP-1 (Amplex Red/HRP-coupled hydrogen peroxide assay, benzylamine substrate); conditions: recombinant human VAP-1; 30 min preincubation at 37° C.; 1 mM benzylamine; read-out: Inhibitory Activity (IC50, nM) human VAP-1
T1 construct: purchased R&D systems
T1 sequence (Q16853 1-763): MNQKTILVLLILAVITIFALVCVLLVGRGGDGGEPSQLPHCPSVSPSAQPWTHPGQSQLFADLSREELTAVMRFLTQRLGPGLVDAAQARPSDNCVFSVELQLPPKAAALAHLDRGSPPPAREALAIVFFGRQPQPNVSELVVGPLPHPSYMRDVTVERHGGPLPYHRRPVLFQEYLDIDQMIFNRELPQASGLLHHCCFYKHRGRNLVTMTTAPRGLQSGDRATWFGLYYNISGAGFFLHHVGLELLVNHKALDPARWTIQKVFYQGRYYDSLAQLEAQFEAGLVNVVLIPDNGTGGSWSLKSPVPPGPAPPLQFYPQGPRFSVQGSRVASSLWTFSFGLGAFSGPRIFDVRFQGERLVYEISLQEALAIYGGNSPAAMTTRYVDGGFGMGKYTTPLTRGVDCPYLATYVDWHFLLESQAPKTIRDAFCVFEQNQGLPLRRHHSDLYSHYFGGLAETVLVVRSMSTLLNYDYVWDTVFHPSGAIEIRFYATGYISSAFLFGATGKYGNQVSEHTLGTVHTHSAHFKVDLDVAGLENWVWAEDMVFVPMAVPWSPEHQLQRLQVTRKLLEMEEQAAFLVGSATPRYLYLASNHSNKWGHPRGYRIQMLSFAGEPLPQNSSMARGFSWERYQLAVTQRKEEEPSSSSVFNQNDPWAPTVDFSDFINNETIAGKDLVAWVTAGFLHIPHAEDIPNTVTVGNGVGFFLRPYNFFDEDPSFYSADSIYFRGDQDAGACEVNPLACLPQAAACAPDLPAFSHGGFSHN
In short: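 Hydrogen peroxide from benzylamine (1 mM) oxidation by human recombinant VAP-1 detected via HRP-coupled Amplex Red (200 uM) fluorescence, kinetic over 1–2 h. Enzyme and compound preincubated 30 min at 37 °C, pH 7.4 phosphate; 8-point dose response, signal-rate decrease versus DMSO control fitted to four-parameter logistic for IC50.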

[2] = molecular target: T2, recombinant human MAO-B (monoamine oxidase-B) (Homo sapiens, UniProt P27338); test: Activity evaluation on recombinant human MAO-B (Amplex Red/HRP-coupled assay, 1 mM benzylamine substrate); conditions: 1 mM benzylamine, read-out: Inhibitory Activity (IC50, nM) MAO-B
T2 construct: purchased Sigma-Aldrich
T2 sequence (P27338 1-520): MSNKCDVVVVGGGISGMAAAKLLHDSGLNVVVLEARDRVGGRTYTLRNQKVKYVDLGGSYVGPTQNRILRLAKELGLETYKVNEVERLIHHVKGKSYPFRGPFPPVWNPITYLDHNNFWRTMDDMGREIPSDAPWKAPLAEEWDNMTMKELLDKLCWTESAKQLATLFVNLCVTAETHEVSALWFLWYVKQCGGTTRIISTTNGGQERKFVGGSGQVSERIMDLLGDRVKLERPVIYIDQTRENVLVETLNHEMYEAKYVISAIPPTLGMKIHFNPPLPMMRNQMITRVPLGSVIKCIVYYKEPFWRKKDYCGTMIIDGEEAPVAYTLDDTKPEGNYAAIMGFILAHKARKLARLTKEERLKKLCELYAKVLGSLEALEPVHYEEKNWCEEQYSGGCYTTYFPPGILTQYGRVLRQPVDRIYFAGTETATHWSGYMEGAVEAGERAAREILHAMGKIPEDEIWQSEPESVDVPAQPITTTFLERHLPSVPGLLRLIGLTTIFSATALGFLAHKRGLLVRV
In short: (§1)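 Each oxidase is tested with its own substrate: MAO-A with 0.5 mM tyramine, MAO-B with 1 mM benzylamine, DAO with 1 mM putrescine. After 30 min enzyme-compound preincubation at 37 °C, Amplex Red (200 uM) plus HRP (1 U/mL) reports H2O2 as fluorescence; IC50 is fitted from eight-point curves.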

[3] = molecular target: T3, recombinant human MAO-A (monoamine oxidase-A) (Homo sapiens, UniProt P21397); test: Activity evaluation on recombinant human MAO-A (Amplex Red/HRP-coupled assay, 0.5 mM tyramine substrate); conditions: 0.5 mM tyramine, read-out: Inhibitory Activity (IC50, nM) MAO-A
T3 construct: purchased Sigma-Aldrich
T3 sequence (P21397 1-527): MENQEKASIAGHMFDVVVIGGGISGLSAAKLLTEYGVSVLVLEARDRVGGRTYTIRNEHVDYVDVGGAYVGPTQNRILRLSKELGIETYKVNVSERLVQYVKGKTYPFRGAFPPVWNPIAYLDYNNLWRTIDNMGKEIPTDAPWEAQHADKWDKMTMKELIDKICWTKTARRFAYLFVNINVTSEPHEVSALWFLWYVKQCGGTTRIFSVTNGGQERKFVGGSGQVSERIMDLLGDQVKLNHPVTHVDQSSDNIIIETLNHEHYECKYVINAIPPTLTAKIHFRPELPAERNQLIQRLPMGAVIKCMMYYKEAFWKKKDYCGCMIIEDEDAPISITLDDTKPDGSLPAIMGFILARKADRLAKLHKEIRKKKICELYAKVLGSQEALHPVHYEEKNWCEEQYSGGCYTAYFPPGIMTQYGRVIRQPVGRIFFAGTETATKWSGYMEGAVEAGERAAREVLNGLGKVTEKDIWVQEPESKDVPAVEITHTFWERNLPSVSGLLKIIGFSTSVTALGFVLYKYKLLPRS
In short: as §1

[4] = molecular target: T4, recombinant human DAO (diamine oxidase) (Homo sapiens, UniProt P19801); test: Activity evaluation on recombinant human DAO (Amplex Red/HRP-coupled assay, 1 mM putrescine substrate); conditions: 1 mM putrescine, read-out: Inhibitory Activity (IC50, nM) DAO
T4 construct: purchased R&D systems
T4 sequence (P19801 20-751): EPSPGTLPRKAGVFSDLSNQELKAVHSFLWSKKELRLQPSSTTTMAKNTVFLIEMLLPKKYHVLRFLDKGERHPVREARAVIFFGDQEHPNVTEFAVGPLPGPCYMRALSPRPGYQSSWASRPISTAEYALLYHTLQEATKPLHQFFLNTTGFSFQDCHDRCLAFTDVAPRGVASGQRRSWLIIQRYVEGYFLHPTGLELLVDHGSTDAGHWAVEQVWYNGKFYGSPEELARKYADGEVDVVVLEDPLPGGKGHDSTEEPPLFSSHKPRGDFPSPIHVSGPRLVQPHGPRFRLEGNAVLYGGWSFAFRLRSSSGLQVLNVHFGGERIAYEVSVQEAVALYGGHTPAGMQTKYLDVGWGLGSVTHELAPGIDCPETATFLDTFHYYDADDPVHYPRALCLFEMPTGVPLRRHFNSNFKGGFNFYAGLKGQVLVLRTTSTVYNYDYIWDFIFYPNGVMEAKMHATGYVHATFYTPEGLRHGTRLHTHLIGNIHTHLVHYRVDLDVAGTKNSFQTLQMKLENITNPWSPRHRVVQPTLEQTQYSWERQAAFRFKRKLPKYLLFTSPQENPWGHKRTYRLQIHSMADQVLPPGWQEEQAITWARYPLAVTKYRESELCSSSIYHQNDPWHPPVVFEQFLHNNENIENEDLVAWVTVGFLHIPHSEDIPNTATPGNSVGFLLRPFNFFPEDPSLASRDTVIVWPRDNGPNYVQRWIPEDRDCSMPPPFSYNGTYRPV
In short: as §1

SMILES	IC50 [1]	IC50 [2]	IC50 [3]	IC50 [4]
CCn1cc(-c2cnc(-n3cnn(CC(CN)=C(F)F)c3=O)c(C)c2)cn1 [Example 75, 2-[2-(aminomethyl)-3,3-difluoro-allyl]-4-[5-(1-ethylpyrazol-4-yl)-3-methyl-2-pyridyl]-1,2,4-triazol-3-one Trifluoroacetate]	0.7 nM	> 100000 nM	> 100000 nM	20000 nM
Cc1cc(-n2cnn(CC(CN)=C(F)F)c2=O)cnc1-c1ccc(S(C)(=O)=O)cc1 [Example 76, 2-[2-(aminomethyl)-3,3-difluoro-allyl]-4-[5-methyl-6-(4-methylsulfonylphenyl)-3-pyridyl]-1,2,4-triazol-3-one Trifluoroacetate]	1.1 nM	44000 nM	> 100000 nM	32 nM
Cc1cc(-n2cnn(CC(CN)=C(F)F)c2=O)cnc1-c1ccc(C(F)(F)F)nc1 [Example 77, 2-[2-(aminomethyl)-3,3-difluoro-allyl]-4-[5-methyl-6-[6-(trifluoromethyl)-3-pyridyl]-3-pyridyl]-1,2,4-triazol-3-one Trifluoroacetate]	1 nM	1600 nM	> 100000 nM	10 nM
Cc1cc(-n2cnn(CC(CN)=C(F)F)c2=O)cnc1-c1ccc(N(C)C)nc1 [Example 78, 2-[2-(aminomethyl)-3,3-difluoro-allyl]-4-[6-[6-(dimethylamino)-3-pyridyl]-5-methyl-3-pyridyl]-1,2,4-triazol-3-one Trifluoroacetate]	0.6 nM	9800 nM	> 100000 nM	57 nM
Cc1cc(-n2cnn(CC(CN)=C(F)F)c2=O)cnc1-c1ccc2c(c1)OCO2 [Example 79, 2-[2-(aminomethyl)-3,3-difluoro-allyl]-4-[6-(1,3-benzodioxol-5-yl)-5-methyl-3-pyridyl]-1,2,4-triazol-3-one Trifluoroacetate]	0.9 nM	910 nM	> 100000 nM	200 nM
Cc1cc(-n2cnn(CC(CN)=C(F)F)c2=O)cnc1-c1cc(C)c2c(c1)CCC(=O)N2 [Example 80, 6-[5-[1-[2-(aminomethyl)-3,3-difluoro-allyl]-5-oxo-1,2,4-triazol-4-yl]-3-methyl-2-pyridyl]-8-methyl-3,4-dihydro-1H-quinolin-2-one Trifluoroacetate]	0.4 nM	5300 nM	> 100000 nM	36 nM
Cc1cc(-n2cnn(CC(CN)=C(F)F)c2=O)cnc1-c1ccc2c(c1)CCC(=O)N2C [Example 81, 6-[5-[1-[2-(aminomethyl)-3,3-difluoro-allyl]-5-oxo-1,2,4-triazol-4-yl]-3-methyl-2-pyridyl]-1-methyl-3,4-dihydroquinolin-2-one Trifluoroacetate]	0.4 nM	3500 nM	> 100000 nM	27 nM
NCC(Cn1ncn(-c2ncc(-c3ccc(N4CCNCC4)cc3)cc2F)c1=O)=C(F)F [Example 83, 2-[2-(aminomethyl)-3,3-difluoro-allyl]-4-[3-fluoro-5-(4-piperazin-1-ylphenyl)-2-pyridyl]-1,2,4-triazol-3-one Ditrifluoroacetate]	0.4 nM	> 10000 nM	> 100000 nM	250 nM
NCC(Cn1ncn(-c2ncc(-c3ccc4c(c3)OCO4)cc2F)c1=O)=C(F)F [Example 85, 2-[2-(aminomethyl)-3,3-difluoro-allyl]-4-[5-(1,3-benzodioxol-5-yl)-3-fluoro-2-pyridyl]-1,2,4-triazol-3-one Trifluoroacetate]	0.2 nM	130 nM	> 100000 nM	180 nM

Further compounds by falling IC50 [1], results first:

IC50 [1]	IC50 [2]	IC50 [3]	IC50 [4]	SMILES
0.2 nM	900 nM	> 100000 nM	7 nM	NCC(Cn1ncn(-c2ncc(-c3ccc(C(F)(F)F)nc3)cc2F)c1=O)=C(F)F [Example 84, 2-[2-(aminomethyl)-3,3-difluoro-allyl]-4-[3-fluoro-5-[6-(trifluoromethyl)-3-pyridyl]-2-pyridyl]-1,2,4-triazol-3-one Trifluoroacetate]
0.1 nM	3700 nM	> 100000 nM	13 nM	CS(=O)(=O)c1ccc(-c2cnc(-n3cnn(CC(CN)=C(F)F)c3=O)c(F)c2)cc1 [Example 82, 2-[2-(aminomethyl)-3,3-difluoro-allyl]-4-[3-fluoro-5-(4-methylsulfonylphenyl)-2-pyridyl]-1,2,4-triazol-3-one Trifluoroacetate]
0.1 nM	640 nM	> 100000 nM	33 nM	Cc1cc(-c2cnc(-n3cnn(CC(CN)=C(F)F)c3=O)c(F)c2)cc2c1NC(=O)CC2 [Example 86, 6-[6-[1-[2-(aminomethyl)-3,3-difluoro-allyl]-5-oxo-1,2,4-triazol-4-yl]-5-fluoro-3-pyridyl]-8-methyl-3,4-dihydro-1H-quinolin-2-one Trifluoroacetate]
0.1 nM	1100 nM	> 100000 nM	22 nM	CN1C(=O)CCc2cc(-c3cnc(-n4cnn(CC(CN)=C(F)F)c4=O)c(F)c3)ccc21 [Example 87, 6-[6-[1-[2-(aminomethyl)-3,3-difluoro-allyl]-5-oxo-1,2,4-triazol-4-yl]-5-fluoro-3-pyridyl]-1-methyl-3,4-dihydroquinolin-2-one Trifluoroacetate]
